Assay results: publication PMC11477294, “In Vitro Profiling of the Antiviral Peptide TAT-I24” (International Journal of Molecular Sciences, 2024)
Where a SMILES comes first, the peptide text is derived from it. Bridges are numbered along the chain shown (N, C = ends).

Key:
[1] = system: MCMV strain delm157-luc rep; format: cell-based, mouse cytomegalovirus; conditions: luciferase reporter gene expression in NIH/3T3 cells infected with replication-competent MCMV, MOI 0.5, 72 h post-infection; 1:3 dilution series; non-linear regression; n = 9
Procedure: NIH/3T3 cells were seeded at a density of 2 × 10^4 cells/100 µL per well in a 96-well plate (Sarstedt, Germany) and allowed to attach overnight. On the next day, cells were treated with a 1:3 dilutions series of peptides and, without further pre-incubation, subsequently infected with the MCMV strain delm157-luc rep. The MCMV stock was prepared and quantified as previously described. The virus (MOI 0.5 for luc assays; for other assays, see the specific descriptions) was adsorbed to cells with the aid of centrifugal enhancement twice at 800× g for 15 min at room temperature and incubated at 37 °C for the indicated times. For the luciferase assays, the infected cells were lysed 72 h post-infection using 20 µL Cell Culture Lysis Reagent (Promega, Mannheim, Germany). From the lysates, 10 µL was transferred to white 96-well plates, and luciferase was recorded using a Luciferase Assay System and a GloMax®-Multi Detection System (Promega, Mannheim, Germany).

HEK293 cells = experiment: Cell viability assay (CellTiter-Blue) in HEK293 cells; format: cell-based; conditions: 72 h at 37 °C, 3-fold dilution series starting with 20 µM, triplicate, non-linear regression (curve fit)
Procedure: HEK293 cells were seeded at a density of 2.5 × 10^3 cells/100 µL per well in a 96-well plate (Sarstedt, Germany). In addition, a serial 1:2 dilution of the cell suspension was added to each plate to generate a standard curve. On the next day, cells were treated with serial 1:3 peptide dilutions in triplicate and incubated for 72 h at 37 °C. Then, 20 µL of CellTiter-Blue® Cell Viability Assay (Promega, Mannheim, Germany) was added to each well and incubated at 37 °C for a further 1–2 h. Fluorescence was recorded using a GloMax®-Multi Detection System (Promega, Mannheim, Germany). The percentage of viable cells was calculated from the cell dilution series from each plate by linear regression analysis. The selectivity index was calculated using the following formula: SI = CC50/IC50.
Figure S1. Cell viability assay in HEK293 cells in the presence of peptides. Cells were incubated with 3 -fold dilution series of peptides starting with a concentration of 20 µM for 72 hours and measured using the Cell Titer Blue assay. Curve fitting of % viable cells of untrea ted control was performed using Graph Pad Prism softwar e.
(1 picture or pasted object on this page, not shown here)

[2] = system: human red blood cells (RBCs); experiment: Hemolysis assay with red blood cells; format: cell-based; conditions: 1 h at 37 °C; for hemolysis of human RBCs: peptide dilutions in PBS or PBS + 10% donor serum, concentrations < 20 µM (1:2 dilutions), OD 450 nm of supernatants, n = 6; for swelling of RBCs (pellet size after centrifugation): peptide dilutions prepared in PBS, up to 20 µM
Procedure: Blood from healthy volunteers was collected by venipuncture (Greiner Bio-One, Kremsmünster, Austria) into K2E K2EDTA VacuetteTM tubes (Greiner Bio-One, Kremsmünster, Austria) with 4 mL blood. The assay for hemolysis was adapted from Sæbo et al.. Blood was centrifuged at 1000× g for 10 min, and plasma was kept for further use. Red blood cells were then resuspended in 10 mL PBS and centrifuged again at 1000× g for a total of three times. Cells were then counted using a hemocytometer and seeded at a cell number of 1 × 10^7 cells/100 µL PBS per well in conical 96-well plates (ThermoFisher, Darmstadt, Germany). Next, 1:2 peptide dilutions starting from 40 µM either in PBS or 10% donor serum were prepared, and 100 µL was added to 100 µL of RBC. Plates were then incubated for one hour at 37 °C. As the positive control, three wells with 100 µL RBCs were treated with 100 µL PBS + 0.5% Triton X-100. After incubation, plates were centrifuged at 1000× g for 5 min and supernatants were transferred to flat 96-well plates. Optical density (OD) was determined at 450 nm using a GloMax®-Multi Detection System (Promega, Mannheim, Germany). Images from RBCs from light microscopy and centrifuged plates were taken using an iPhone 12 mini.

[3] = system: baculovirus expressing luciferase under the control of the CMV promoter; format: cell-based; conditions: luciferase reporter gene expression in HEK293 cells transduced with baculovirus-luc, MOI 5, 24 h post-infection; 1:3 peptide dilution series; non-linear regression; n = 8
Procedure: A baculovirus expressing luciferase under the control of the CMV promoter has been described previously. HEK293 cells were seeded at a density of 2 × 10^4 cells/100 µL per well in 96-well plates (Sarstedt, Germany). On the next day, cells were treated with a 1:3 dilution series of peptides and, without further pre-incubation, subsequently infected with baculovirus–luc at a multiplicity of infection (MOI) of 5. Cells were lysed 24 h post-infection using 20 µL Cell Culture Lysis Reagent (Promega, Mannheim, Germany). From the lysates, 10 µL was transferred to white 96-well plates, and luciferase was recorded using a luciferase assay system and a GloMax®-Multi Detection System (Promega, Mannheim, Germany).

Compound	IC50 [1] [µM]	HEK293 CC50 (HEK293 cells) [µM]	hemolysis of human RBCs [2]	swelling of RBCs (pellet size after centrifugation) [2]	IC50 [3] [µM]
CSCC[C@H](NC(=O)[C@H](Cc1ccccc1)NC(=O)[C@H](CCCNC(=N)N)NC(=O)[C@H](C)NC(=O)[C@H](Cc1ccc(O)cc1)NC(=O)[C@H](Cc1ccccc1)NC(=O)[C@H](C)NC(=O)[C@H](CC(C)C)NC(=O)[C@H](C)NC(=O)[C@H](CCC(N)=O)NC(=O)[C@@H]1CCCN1C(=O)[C@@H]1CCCN1C(=O)[C@H](CCCNC(=N)N)NC(=O)[C@H](CCCNC(=N)N)NC(=O)[C@H](CCCNC(=N)N)NC(=O)[C@H](CCC(N)=O)NC(=O)[C@H](CCCNC(=N)N)NC(=O)[C@H](CCCNC(=N)N)NC(=O)[C@H](CCCCN)NC(=O)[C@H](CCCCN)NC(=O)[C@H](CCCNC(=N)N)NC(=O)CN)C(=O)O [C14A, C20R, C22M] (H-GRKKRRQRRRPPQALAFYARFM-OH)	3.59	63	neither induce hemolysis	reduced swelling	0.58
CC(C)C[C@@H]1NC(=O)[C@@H](NC(=O)[C@H](CCC(N)=O)NC(=O)[C@@H]2CCCN2C(=O)[C@@H]2CCCN2C(=O)[C@H](CCCNC(=N)N)NC(=O)[C@H](CCCNC(=N)N)NC(=O)[C@H](CCCNC(=N)N)NC(=O)[C@H](CCC(N)=O)NC(=O)[C@H](CCCNC(=N)N)NC(=O)[C@H](CCCNC(=N)N)NC(=O)[C@H](CCCCN)NC(=O)[C@H](CCCCN)NC(=O)[C@H](CCCNC(=N)N)NC(=O)CN)CSSC[C@@H](C(=O)N[C@@H](Cc2ccccc2)C(=O)O)NC(=O)[C@H](C)NC(=O)[C@H](Cc2ccc(O)cc2)NC(=O)[C@H](Cc2ccccc2)NC(=O)[C@H](C)NC1=O [C22del_cyc] (H-GRKKRRQRRRPPQCLAFYACF-OH; disulfide 14-20)	12.2	–	neither induce hemolysis	reduced swelling	1.41
